Read-outs that look alike come from different tables or passages of the source.
Tests used:
[1] = cited from earlier work
[2] = Relaxivity determination (r1, r2) on Bruker minispec mq60; format: physicochemical; conditions: PBS, 60 MHz, 40°C
Description: A stock solution having a concentration of 1 mM of the CA of interest was prepared in phosphate-buffered saline (PBS), and the iron concentration was verified by elemental analysis. Separate 0.75 mM, 0.50 mM, and 0.25 mM samples were prepared from the stock by dilution in PBS, and T1 and T2 relaxations times were recorded in triplicate for each sample on a Bruker minispec mq60 instrument (60 MHz, 40°C). The relaxivities (r1 and r2) were obtained as the gradient of 1/Tx (x = 1, 2) plotted against Fe chelate concentration following linear least squares regression analysis.

[3] = Ascorbic acid oxidation assay (redox stability); conditions: iron chelate 20 μM (30 mol%), ascorbic acid 67 μM in PBS, 45 minutes, air oxidation
Description: The UV-Vis spectrum of an ascorbic acid solution (67 μM and 12 μg/mL) in PBS (3 mL) was recorded. The absorbance intensity at λmax = 265 nm was observed. An aliquot (30 μL) of the iron chelate of ethylenediaminetetraacetic acid (Fe-EDTA) in PBS (2 mM, 0.7 mg/mL) was added to afford a catalytic quantity of Fe-EDTA (20 μM, 30 mol%) with respect to ascorbic acid. The absorbance intensity (λmax = 265 nm) was recorded at intervals of 1 minute for a period of 45 minutes and the data normalized to the t0 absorbance. The experiment was then repeated identically using a solution of the iron chelate complex under investigation (20 μM, 30 mol%), and the results were plotted as a function of the percent initial ascorbic acid signal versus elapsed time (min).

bovine serum albumin = bovine serum albumin (Bos taurus, UniProt P02769); assay: Serum protein binding assay (ultrafiltration, UV-Vis); format: in vitro ADME; conditions: bovine serum albumin 8 wt.% in PBS, 1 hour at room temperature, 30 kDa filter
bovine serum albumin, sequence (P02769 25-607): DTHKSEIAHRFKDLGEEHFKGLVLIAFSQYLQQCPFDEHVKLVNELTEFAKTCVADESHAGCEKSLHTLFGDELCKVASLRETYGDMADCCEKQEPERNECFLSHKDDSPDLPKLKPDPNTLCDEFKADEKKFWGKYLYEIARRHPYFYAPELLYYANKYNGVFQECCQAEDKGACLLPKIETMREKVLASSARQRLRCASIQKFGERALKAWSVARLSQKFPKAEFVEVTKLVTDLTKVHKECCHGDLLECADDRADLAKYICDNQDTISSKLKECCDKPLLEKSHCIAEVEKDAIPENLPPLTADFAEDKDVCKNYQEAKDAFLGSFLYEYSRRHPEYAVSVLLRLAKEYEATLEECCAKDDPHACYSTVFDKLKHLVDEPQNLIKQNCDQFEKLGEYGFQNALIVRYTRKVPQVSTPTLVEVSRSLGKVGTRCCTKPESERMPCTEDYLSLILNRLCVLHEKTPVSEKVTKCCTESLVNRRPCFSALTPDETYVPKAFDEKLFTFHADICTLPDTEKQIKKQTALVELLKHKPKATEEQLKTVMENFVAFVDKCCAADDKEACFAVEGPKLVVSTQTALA
Description: A 5 mM stock solution of the iron chelate complex under investigation was prepared in PBS, and the UV/visible spectrum of the solution was acquired to determine the wavelength of the absorbance maximum (λmax). An aliquot of the stock solution (500 μL) was added to a PBS solution (2 mL) containing bovine serum albumin (8 wt.%). A control sample was prepared by diluting a second aliquot of the stock solution (500 μL) with PBS (2 mL). The samples were vortexed briefly and then allowed to stand for 1 hour at room temperature. At the stipulated time, the resulting solutions were transferred to Amicon Ultra filters (4 mL, MWCO = 30 kDa). The solutions were centrifuged (3000 rcf, 15 min), and the permeate was taken directly for UV-Vis measurement. The wavelength and intensity of λmax in the visible region for the solution were recorded. The relative amount of free and protein-bound agent was calculated from the λmax intensity ratio of the assay to control samples.

[4] = design: method as in PMID 16230904; conditions: in water at 1.5 T; cited from earlier work

r1 [2] [mM⁻¹ s⁻¹]	Protein binding (bovine serum albumin) [%]	SMILES	log K (Fe[III] binding) [1]	pseudo-first-rate time constant for ascorbic acid consumption, relative to Fe-EDTA [3] [%]	r1 [4] [mM⁻¹ s⁻¹]
0.9	–	O=C1CN2CCN3CC(=O)[O][Fe]([O]1)([O]c1ccc(S(=O)(=O)O)cc1C2)[O]c1ccc(S(=O)(=O)O)cc1C3 [Fe-2]	–	< 0.5	–
0.9	20	O=P1(O)CN2CCN3Cc4cccc(CO)c4[O][Fe]([O]c4c(CO)cccc4C2)([O]1)[O]P(=O)(O)C3 [Fe-4]	–	–	–
1.3	49	O=P1(O)CN2CCN3Cc4ccccc4[O][Fe]([O]c4ccccc4C2)([O]1)[O]P(=O)(O)C3 [Fe-3]	–	< 0.5	–

The remaining lines, values behind:

SMILES	r1 [2] [mM⁻¹ s⁻¹]	Protein binding (bovine serum albumin) [%]	log K (Fe[III] binding) [1]	pseudo-first-rate time constant for ascorbic acid consumption, relative to Fe-EDTA [3] [%]	r1 [4] [mM⁻¹ s⁻¹]
O=C(O)CN(CCN(CC(=O)O)Cc1ccccc1O)Cc1ccccc1O [HBED, N,N′-bis(2-hydroxyphenyl)ethylenediamine-N,N′-diacetic acid]	–	–	39.7	–	–
O=C1CN2CCN3CC(=O)[O][Fe]([O]1)([O]c1ccccc1C2)[O]c1ccccc1C3 [Fe-1]	0.49	33	–	–	–
CNC[C@H](O)[C@@H](O)[C@H](O)[C@H](O)CO.CNC[C@H](O)[C@@H](O)[C@H](O)[C@H](O)CO.O=C([O-])CN(CCN(CC(=O)[O-])CC(=O)O)CCN(CC(=O)[O-])CC(=O)O.[Gd+3] [Gd-1, Gadopentetate dimeglumine]	–	–	–	–	3.3
